Laboratory results reported in US20230382909A1, “BICYCLIC COMPOUNDS” (Aligos Therapeutics, Inc., priority 2022, published 2023).
Structures can show the parent of a compound that is named as a salt.

Key:
[1] = Cell viability by CellTiter-Glo 2.0 (intracellular ATP content) in HepG2.117 cells; type: cell-based; conditions: human, CellTiter-Glo 2.0, 3 days incubation
Procedure: (§1) The following assay procedure describes the HBV antiviral assay, using HepG2.117 cells, which carry a stably integrated genotype D HBV genome under the control of a Tet-off promoter, and intracellular HBV DNA quantification as endpoint. Cell viability is assessed in parallel by measuring the intracellular ATP content using CellTiter-Glo 2.0 (Promega).
(§2) On day 1, medium is removed from each well, the test articles are diluted in culture medium without doxcycyline and 100 μL was added to cell culture wells (9 concentrations, 4-fold dilution). For each plate, 6 untreated (merely DMSO) wells are included. The final concentration of DMSO in the culture medium is 2%. Each plate is prepared in duplicate (one for HBV DNA extraction, one for CellTiter-Glo 2.0 measurement). The cells are incubated at 37° C. and 5% CO2 for 3 days.
(§3) On day 4, cell viability is assessed using CellTiter-Glo 2.0 and cell lysates are prepared for HBV DNA extraction and subsequent quantification by qPCR.
Using the other plates, the cell viability is quantified by CellTiter-Glo 2.0 according to the manufacturer's manual. In brief, 100 μL of reagent solution is added to the culture plates and shaken for 2′. The plates are incubated at rt for 10 min and luminescence signal is subsequently measured on a VarioSkan Lux (ThermoFisher) plate reader.
(§4) Cell viability is calculated as follows: % Cell viability=(luminescence value of test sample)/(average luminescence value of 2% DMSO control)×100%. HBV DNA inhibition was calculated as follows: 100−(HBV DNA copy number of test sample)/(average HBV DNA copy number of 2% DMSO control)×100%. No normalization to entecavir is required due to the excellent dynamic window of this assay. The CC50, EC50 and EC9o values were determined by dose-response curves fitted using non-linear regression.

[2] = system: HBV; test: HBV-DNA antiviral assay using HepG2.117 cells; type: cell-based, HBV genotype D; conditions: Hepatitis B virus, HepG2.117, 72 h
Procedure: as §1
On day 0, HepG2.117 cells (which are maintained in routine cell culture with doxycycline present in the medium at a final concentration of 1 μg/mL) are seeded in 96-well plates (white with clear bottom) at a density of 2.0×10^4 cells/well (0.1 mL/well) in medium without doxycycline to induce pgRNA transcription and subsequent formation of HBV particles. The cells are incubated at 37° C. and 5% CO2.
as §2, §3
HBV DNA Quantification by qPCR
Medium is removed from each well and 100 μL of 0.33% NP-40 in H2O was added to each well. Plates are sealed, incubated at 4° C. for 5 mins, vortexed extensively and centrifuged briefly. Next, 35 μL of lysate is added to 65 μL QuickExtract DNA Extraction Solution (Epicentre) in a PCR plate for each well. PCR plate is incubated at 65° C. for 6 mins, 98° C. for 2 mins and finally cooled to 4° C. HBV DNA is then quantified by qPCR with HBV-specific primers and probes as specified in Table 3 using the Bio-Rad SSOAdvanced Universal Probes Supermix on a CFX96 machine (Bio-Rad). The PCR cycle program consisted of 95° C. for 3 mins, followed by 40 cycles at 95° C. for 10 sec and 60° C. for 30 sec.
A DNA standard is prepared by dilution of an IDT gBlock corresponding to the amplicon with concentrations ranging from 10^2 to 10^8 copies/input (i.e., per 4 μL) and used to generate a standard curve by plotting Cq values vs. HBV DNA standard concentration. The quantity of HBV DNA in each sample is determined by interpolating from the standard curve.
as §4

SMILES	CC50 at 3 days [1] [µM]	EC50 [2] [µM]
Cc1cc(C)n(-c2nc3c(c(=O)n2-c2ccc(NC(C)C)nc2)C[C@@H](C)N(C(=O)c2ccc(Br)c(C(F)(F)F)c2)C3)n1 [Compound 25, (6R)-7-[4-bromo-3-(trifluoromethyl)benzoyl]-2-(3,5-dimethylpyrazol-1-yl)-3-[6-(isopropylamino)-3-pyridyl]-6-methyl-6,8-dihydro-5H-pyrido[3,4-d]pyrimidin-4-one]	> 0.5	< 0.05
Cc1cc(C)n(-c2nc3c(c(=O)n2-c2ncc(N)cn2)C[C@@H](C)N(C(=O)c2ccc(Br)c(C(F)(F)F)c2)C3)n1 [Compound 41, (R)-3-(5-aminopyrimidin-2-yl)-7-(4-bromo-3-(trifluoromethyl)benzoyl)-2-(3,5-dimethyl-1H-pyrazol-1-yl)-6-methyl-5,6,7,8-tetrahydropyrido[3,4-d]pyrimidin-4(3H)-one]	> 0.5	< 0.05
Cc1cc(C)n(-c2nc3c(c(=O)n2-c2ccc(N4CCNCC4)nc2)C[C@@H](C)N(C(=O)c2ccc(Br)c(C(F)(F)F)c2)C3)n1 [Compound 10, (R)-7-(4-bromo-3-(trifluoromethyl)benzoyl)-2-(3,5-dimethyl-1H-pyrazol-1-yl)-6-methyl-3-(6-(piperazin-1-yl)pyridin-3-yl)-5,6,7,8-tetrahydropyrido[3,4-d]pyrimidin-4(3H)-one hydrochloride]	> 0.5	< 0.05
Cc1cc(C)n(-c2nc3c(c(=O)n2-c2cc(Cl)c4c(c2)ncn4C)C[C@@H](C)N(C(=O)c2ccc(Br)c(C(F)(F)F)c2)C3)n1 [Compound 17, (6R)-7-[4-bromo-3-(trifluoromethyl)benzoyl]-3-(7-chloro-1-methyl-benzimidazol-5-yl)-2-(3,5-dimethylpyrazol-1-yl)-6-methyl-6,8-dihydro-5H-pyrido[3,4-d]pyrimidin-4-one]	> 0.5	< 0.05
Cc1cc(C)n(-c2nc3c(c(=O)n2-c2ccc(-c4cnn(C)c4)cn2)C[C@@H](C)N(C(=O)c2ccc(Br)c(C(F)(F)F)c2)C3)n1 [Compound 16, (6R)-7-[4-bromo-3-(trifluoromethyl)benzoyl]-2-(3,5-dimethylpyrazol-1-yl)-6-methyl-3-[5-(1-methylpyrazol-4-yl)-2-pyridyl]-6,8-dihydro-5H-pyrido[3,4-d]pyrimidin-4-one]	> 0.5	< 0.05
Cc1cc(C)n(-c2nc3c(c(=O)n2-c2ccc(N4CC[C@H](O)C4)nc2)C[C@@H](C)N(C(=O)c2ccc(Br)c(C(F)(F)F)c2)C3)n1 [Compound 33, (6R)-7-[4-bromo-3-(trifluoromethyl)benzoyl]-2-(3,5-dimethylpyrazol-1-yl)-3-[6-[(3S)-3-hydroxypyrrolidin-1-yl]-3-pyridyl]-6-methyl-6,8-dihydro-5H-pyrido[3,4-d]pyrimidin-4-one]	> 0.5	< 0.05
CNc1cnc(-n2c(-n3nc(C)cc3C)nc3c(c2=O)C[C@@H](C)N(C(=O)c2ccc(Br)c(C(F)(F)F)c2)C3)nc1 [Compound 42, (R)-7-(4-bromo-3-(trifluoromethyl)benzoyl)-2-(3,5-dimethyl-1H-pyrazol-1-yl)-6-methyl-3-(5-(methylamino)pyrimidin-2-yl)-5,6,7,8-tetrahydropyrido[3,4-d]pyrimidin-4(3H)-one]	> 0.5	< 0.05
CNC(=O)c1ccc(-n2c(-n3nc(C)cc3C)nc3c(c2=O)C[C@@H](C)N(C(=O)c2ccc(Br)c(C(F)(F)F)c2)C3)cc1Cl [Compound 2, (R)-4-(7-(4-bromo-3-(trifluoromethyl)benzoyl)-2-(3,5-dimethyl-1H-pyrazol-1-yl)-6-methyl-4-oxo-5,6,7,8-tetrahydropyrido[3,4-d]pyrimidin-3(4H)-yl)-2-chloro-N-methylbenzamide]	> 0.5	< 0.05
